Here are results for 9 compounds from patent US20040121304A1, “Method for screening for progesterone receptor isoform-specific ligands and for tissue-selective progesterone receptor ligands” (priority 2004, published 2004).

Experiment [1] addresses T1, hPR-A (progesterone receptor isoform A) (Homo sapiens, UniProt P06401).
T1 construct: expressed in transfected cells; host or cells: SK-N-MC (human neuroblastoma) cells, stably transfected with phPR-2 (PR-A plasmid) plus pRSV-neo and pMTV-LUC
T1 sequence (P06401 1-769 isoform P06401-2): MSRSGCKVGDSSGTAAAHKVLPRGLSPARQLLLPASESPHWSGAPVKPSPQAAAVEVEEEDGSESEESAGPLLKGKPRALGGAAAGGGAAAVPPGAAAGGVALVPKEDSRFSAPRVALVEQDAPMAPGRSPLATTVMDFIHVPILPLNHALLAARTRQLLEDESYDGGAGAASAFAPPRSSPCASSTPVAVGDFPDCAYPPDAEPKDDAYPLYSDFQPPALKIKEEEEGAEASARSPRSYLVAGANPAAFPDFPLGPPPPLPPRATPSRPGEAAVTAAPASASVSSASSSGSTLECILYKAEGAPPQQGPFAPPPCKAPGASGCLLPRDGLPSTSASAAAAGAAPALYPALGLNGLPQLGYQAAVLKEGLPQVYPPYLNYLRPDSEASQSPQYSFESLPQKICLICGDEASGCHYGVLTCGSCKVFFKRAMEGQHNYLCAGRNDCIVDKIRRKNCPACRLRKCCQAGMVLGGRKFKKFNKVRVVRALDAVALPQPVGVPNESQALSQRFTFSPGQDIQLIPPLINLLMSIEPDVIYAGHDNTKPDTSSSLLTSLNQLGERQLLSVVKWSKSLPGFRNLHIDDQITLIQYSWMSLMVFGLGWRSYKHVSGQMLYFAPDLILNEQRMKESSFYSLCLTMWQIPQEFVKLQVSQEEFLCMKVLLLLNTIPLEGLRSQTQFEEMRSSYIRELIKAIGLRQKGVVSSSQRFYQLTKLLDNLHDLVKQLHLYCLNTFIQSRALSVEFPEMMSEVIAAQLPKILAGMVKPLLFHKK
Description: Transactivation assay, SK-N-MC cells stably transfected with hPR-A and MTV-LUC reporter. Type of experiment: cell-based. The note with it: for Emax / antagonism efficacy (PR-A): SK-N-MC hPR-A/MTV-LUC cells, 24 h incubation; for Emax: LUC activity relative to R5020 10^-7 mol/l = 100%, 1% ethanol = 0%, read-out: Agonism efficacy (PR-A); for antagonism efficacy (PR-A): inhibition of LUC induction by 10^-10 mol/l R5020. The method, then: (§1) The method for screening for isoform-specific PR ligands according to the present invention is carried out with first and second SK-N-MC cells stably transfected with a plasmid expressing the hPR-A (first cells) or the hPR-B (second cells) and the LUC reporter gene linked to the hormonally responsive MTV promoter. A detailed description of how the cell lines according to the invention and used in this Example may be obtained is given in Example 5.
(§2) The cells are cultured in Minimum Essential Medium with Earl's Salts (S-MEM, without L-glutamine; Gibco BRL, no. 21090-022), supplemented with 10% fetal calf serum (FCS), penicillin 100U/streptomycin 100 μg/ml (Biochrom, no. A2213), L-glutamine 4 mmol/l (Gibco BRL, no. 25030-024), sodium pyruvate 1 mmol/l (Biochrom, no. L0473) and 1× non-essential amino acids (Biochrom, no. K0293) at a temperature of 37° C. and in an atmosphere of 5% carbon dioxide.
(§3) For the transactivation assay, the cells are seeded onto 96-well dishes (2×10^4 cells/dish) and cultured in a medium as described above, with the exception that the FCS is replaced by a 3% charcoal stripped FCS. 48 hours later, cells are contacted with prediluted test compounds. For determination of agonistic activity, cells are cultured in the presence of increasing concentrations (10^−6 to 10^−11 mol/l) of test compounds. As a positive control for reporter gene induction cells are treated with 10^−6 to 10^−11 mol/l R5020 (promegestone). As a negative control for reporter gene induction, cells are cultured in 1% ethanol. For determination of antagonistic activity, cells are treated with 10^−10 mol/l R5020 and additionally with increasing concentrations (10^−6 to 10^−11 mol/l) of test compounds. As a positive control for inhibition of reporter gene transcription, cells are cultured in increasing concentrations (10^−7 to 10^−12 mol/l) of the antiprogestin mifepristone. As a negative control for inhibition of reporter gene transcription, cells are cultured in 1% ethanol.
(§4) After incubation with test compounds for 24 hours, the medium is removed and cells are lysed with 20 μl of lysis buffer (Luciferase Assay System E 153A; Promega) and under agitation of the plate for 10 min. After addition of 30 μl of luciferase reagent (Luciferase Assay System E 151A+152A; Promega) within 30 seconds per plate, the activity of the luciferase reporter gene product is determined in the cell lysates by means of a Microlite ML 3000 microtiter plate luminometer (Dynatech) in cycle mode.
(§5) Evaluation of the response gives the efficacy [%] for both agonism and antagonism, and evaluation of the EC50 (for agonism) and IC50 (for antagonism) values gives the potency [nM]. Calculation of these values is conducted as follows:
(§6) Calculation of Agonistic Activity:
(§7) The LUC activity [%] for the measured data points is calculated as follows: [formula]
(§8) and CO=0% stimulation (ethanol, 1%).
(§9) Thus, the efficacy [%] is determined according to: [formula]
(§10) The potency [nM], i.e. the EC50, is determined graphically.
(§11) Calculation of Antagonistic Activity:
(§12) wherein CI=0% inhibition (R5020, 10^−10 mol/l) (corresponds to 100% stimulation)
(§13) and CO=100% inhibition (EtOH, 1%) (corresponds to 0% stimulation)
(§14) The potency [nM], i.e. the IC50, is determined graphically.

The target of experiment [2] is T2, hPR-B (progesterone receptor isoform B) (Homo sapiens, UniProt P06401).
T2 construct: expressed in transfected cells; host or cells: SK-N-MC (human neuroblastoma) cells, stably transfected with pRSVhPR-neo (built from pRC/RSV and hPR-1) and pMTV-LUC
T2 sequence (P06401 1-933): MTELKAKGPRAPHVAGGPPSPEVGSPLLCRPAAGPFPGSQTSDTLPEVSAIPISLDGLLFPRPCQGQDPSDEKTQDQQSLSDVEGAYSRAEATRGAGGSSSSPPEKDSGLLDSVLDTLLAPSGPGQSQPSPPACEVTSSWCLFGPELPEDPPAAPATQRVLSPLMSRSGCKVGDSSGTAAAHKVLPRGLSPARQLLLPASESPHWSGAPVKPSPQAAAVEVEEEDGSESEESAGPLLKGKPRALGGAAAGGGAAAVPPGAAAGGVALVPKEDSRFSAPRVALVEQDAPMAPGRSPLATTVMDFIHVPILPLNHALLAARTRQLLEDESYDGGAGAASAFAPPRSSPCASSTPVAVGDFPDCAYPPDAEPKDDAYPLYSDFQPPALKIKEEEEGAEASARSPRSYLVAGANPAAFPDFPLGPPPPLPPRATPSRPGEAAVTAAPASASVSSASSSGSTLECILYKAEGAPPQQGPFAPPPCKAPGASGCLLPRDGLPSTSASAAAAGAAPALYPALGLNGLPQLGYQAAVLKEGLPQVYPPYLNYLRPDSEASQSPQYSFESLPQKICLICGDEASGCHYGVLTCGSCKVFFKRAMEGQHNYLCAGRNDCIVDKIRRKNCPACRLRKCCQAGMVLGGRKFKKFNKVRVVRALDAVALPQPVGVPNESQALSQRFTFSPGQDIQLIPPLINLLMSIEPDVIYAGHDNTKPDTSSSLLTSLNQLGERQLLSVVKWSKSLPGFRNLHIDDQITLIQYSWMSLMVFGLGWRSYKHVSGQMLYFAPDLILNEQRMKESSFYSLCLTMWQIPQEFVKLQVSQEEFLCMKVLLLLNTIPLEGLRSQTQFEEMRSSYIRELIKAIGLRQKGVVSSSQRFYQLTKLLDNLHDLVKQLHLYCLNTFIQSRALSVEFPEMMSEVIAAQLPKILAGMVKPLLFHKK
Description: Transactivation assay, SK-N-MC cells stably transfected with hPR-B and MTV-LUC reporter. Type of experiment: cell-based. The following applies: for Emax / antagonism efficacy (PR-B): SK-N-MC hPR-B/MTV-LUC cells, 24 h incubation; for Emax: LUC activity relative to R5020 10^-7 mol/l = 100%, 1% ethanol = 0%, read-out: Agonism efficacy (PR-B); for antagonism efficacy (PR-B): inhibition of LUC induction by 10^-10 mol/l R5020; for Difference of agonism efficacies (PR-B - PR-A): indicating PR-B selectivity. The method, then: as §1, §2, §3, §4, §5, §6, §7, §8, §9, §10, §11, §12, §13, §14

As for `O=C1OCc2cc(NC(=O)C(O)(CC3(c4cccc(Br)c4)CC3)C(F)(F)F)ccc21` (stereo not drawn) [1-(3-bromophenyl)-N-(1,3-dihydro-1-oxo-5-isobenzofuranyl)-α-hydroxy-α-(trifluoromethyl)-cyclopropanepropanamide], in experiment [1], the Emax worked out at 81% and the “antagonism efficacy (PR-A)” value is on record as “none”. In experiment [2], the Emax worked out at 106%, the “antagonism efficacy (PR-B)” value is recorded as “none” and the “Difference of agonism efficacies (PR-B - PR-A)” value (from here on “Difference … (PR-B - PR-A)”) is given as 25%.

Regarding `CC(CC(O)(CNc1ccc2c(c1)COC2=O)C(F)(F)F)c1ccccc1` (stereo not shown) [5-{[2-hydroxy-4-phenyl-2-(trifluoromethyl)pentyl]amino}-1(3H)-isobenzofiuranone], in experiment [1], the Emax is 39.9% and the “antagonism efficacy (PR-A)” value was “none”. Also, in experiment [2], the Emax was determined as 56.8%, the “antagonism efficacy (PR-B)” value is reported as “none” and the “Difference … (PR-B - PR-A)” value turned out to be 17%.

As to `C#C[C@]1(O)C=CC2C3CCC4=CC(=O)CC[C@@]45CC=C[C@@H](C[C@@]21C)C35` (stereo partly drawn) [9,11-dihydro-17-hydroxy-(11α,17α)-6′H-benzo[10,9,11]-19-norpregna-4,9(11), 15-trien-20-yn-3-one], in experiment [1], the Emax came to 131% and the “antagonism efficacy (PR-A)” value was “none”. Also, the “Difference of agonism efficacies (PR-A - PR-B)” value in experiment [1] (indicating PR-A selectivity) is 17%. In experiment [2], the Emax turned out to be 114% and the “antagonism efficacy (PR-B)” value is reported as “none”.

`C#C[C@]1(O)C=CC2C3CCC4=CC(=O)CC[C@@]45CCC=C(C[C@@]21CC)C35` (stereo partly drawn) [13-ethyl-5α,9-dihydro-17-hydroxy-(17α)-6′H-benzo[10,9,11]-18,19-dinorpregna-4,9(11),15-trien-20-yn-3-one]: in experiment [1], the Emax amounted to 85% and the “antagonism efficacy (PR-A)” value is listed as “none”. In experiment [2], the Emax was 108%, the “antagonism efficacy (PR-B)” value is listed as “none” and the “Difference … (PR-B - PR-A)” value is 23%.

For `C=C[C@]1(O)CCC2C3CCC4=CC(=O)CC[C@@]45CC=C[C@@H](C[C@@]21CC)C35` (stereo partly drawn) [13-ethyl-9,11-dihydro-17-hydroxy-(11α,17α)-6′H-benzo[10,9,11]-18,19-dinorpregna-4,9(11),20-trien-3-one], in experiment [1], the Emax amounted to 132% and the “antagonism efficacy (PR-A)” value was “none”. Besides, in experiment [1] (indicating PR-A selectivity), the “Difference of agonism efficacies (PR-A - PR-B)” value came out at 24%. In addition, in experiment [2], the Emax was 108% and the “antagonism efficacy (PR-B)” value is “none”.

As for `C#C[C@]1(O)CCC2C3CCC4=CC(=O)CC[C@@]45CC=C[C@@H](C[C@@]21CC)C35` (stereo partly drawn) [13-ethyl-9,11-dihydro-17-hydroxy-(11α,17α)-6′H-benzo[10,9,11]-18,19-dinorpregna-4,9(11)-dien-20-yn-3-one], in experiment [1], the Emax came out at 129% and the “antagonism efficacy (PR-A)” value is “none”. The “Difference of agonism efficacies (PR-A - PR-B)” value in experiment [1] (indicating PR-A selectivity) is on record as 21%. For the same compound, in experiment [2], the Emax turned out to be 108% and the “antagonism efficacy (PR-B)” value is “none”.

For the compound `CC(=O)O[C@]1(C(C)=O)CCC2C3C=C(Cl)C4=CC(=O)CC[C@@]45CC[C@@H](C[C@@]21C)C35` (stereo partly drawn) [17-(acetyloxy)-6-chloro-9,11-dihydro-(11α)-cyclopenta[10,9,11]-19-norpregna-4,6,9(11)-triene-3,20-dione], in experiment [1], the Emax turned out to be 29% and the “antagonism efficacy (PR-A)” value is reported as 45%. Besides, in experiment [1] (indicating PR-A selectivity), the “Difference of antagonism efficacies (PR-A - PR-B)” value was found to be 15%. In experiment [2], the Emax was 50%, the “antagonism efficacy (PR-B)” value is 30% and the “Difference … (PR-B - PR-A)” value is listed as 21%.

Take `CC(=O)O[C@]1(C(C)=O)CCC2C3C[C@H](C)C4=CC(=O)CC[C@@]45CC=C[C@@H](C[C@@]21C)C35` (stereo partly drawn) [17-(acetyloxy)-9,11-dihydro-6-methyl-(6α,11α)-6H′benzo[10,9,11]-19-norpregna-4,9(11)-diene-3,20-dione]: in experiment [1], the Emax turned out to be 50% and the “antagonism efficacy (PR-A)” value is on record as “none”. For the same compound, in experiment [2], the Emax was found to be 90%, the “antagonism efficacy (PR-B)” value is recorded as “none” and the “Difference … (PR-B - PR-A)” value worked out at 40%.

As to `CC(=O)O[C@]1(C(C)=O)CC[C@H]2[C@@H]3C=C(C)C4=CC(=O)CC[C@]4(C)[C@H]3CC[C@@]21C` [17-acetoxy-6-methyl-4,6-pregnadiene-3,20-dione], in experiment [1], the Emax is 35% and the “antagonism efficacy (PR-A)” value is listed as “none”. Besides, in experiment [2], the Emax worked out at 81%, the “antagonism efficacy (PR-B)” value is listed as “none” and the “Difference … (PR-B - PR-A)” value came out at 46%.
